The source of these data is PubChem BioAssay (NCI).

Test systems include SNB-75 CNS; MDA-MB-435; K-562 leukemia; BT-549 breast; SR leukemia; NCI-H23 lung; CCRF-CEM leukemia; HCT-116 colon; SK-MEL-5 melanoma; OVCAR-3 ovarian.
What all share (assay): NCI anticancer screen, dose series, 48 h

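Interpolation was linear, between the two tested concentrations surrounding the appropriate level; five concentrations were tested over 48 hours in 96-well plates. At the GI50, growth is halved. The concentration for full growth arrest is given as TGI.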 Bounds are passed on as bounds.

Regarding `Cc1ccc(Cc2n[nH]c(=O)n2N2C(=O)c3ccccc3C2=O)cc1`, the TGI with SNB-75 CNS, in the assay with MDA-MB-435, with K-562 leukemia, with BT-549 breast, in the assay on SR leukemia and in the assay on NCI-H23 lung was above 100 µM each time. The TGI with CCRF-CEM leukemia, in the assay on HCT-116 colon, with SK-MEL-5 melanoma and in the assay with OVCAR-3 ovarian was above 100 µM throughout.

As to `CC(=O)CC12NC(=O)N(C)N=C1N(C)C(=O)N(C)C2=O` (stereo not drawn), the TGI in the assay with SNB-75 CNS is above 100 µM; with MDA-MB-435, 31 µM; in the assay on K-562 leukemia it was above 100 µM; with BT-549 breast it was above 100 µM; in the assay on SR leukemia it was above 100 µM; in the assay on NCI-H23 lung, above 100 µM. The TGI in the assay on CCRF-CEM leukemia, in the assay on HCT-116 colon and in the assay on OVCAR-3 ovarian was above 100 µM in each case.

On to `O=C(NCCC1CN(S(=O)(=O)C(F)(F)F)c2ccccc21)OCc1ccccc1` (stereo not drawn), for which the TGI in the assay on MDA-MB-435, in the assay on K-562 leukemia, with BT-549 breast, in the assay with SR leukemia, in the assay with NCI-H23 lung and in the assay with CCRF-CEM leukemia was above 100 µM each time. In addition, the TGI in the assay on HCT-116 colon, with SK-MEL-5 melanoma and in the assay on OVCAR-3 ovarian was above 100 µM each time.

Take `COc1cc2c(cc1OC)-c1[nH]c3ccc([N+](=O)[O-])cc3c1CC(=O)N2`: the TGI in the assay on SNB-75 CNS is 8.93 µM; with MDA-MB-435, above 100 µM; in the assay with K-562 leukemia it was above 100 µM; in the assay on BT-549 breast, above 100 µM; in the assay with NCI-H23 lung, above 100 µM; in the assay on CCRF-CEM leukemia, above 37.6 µM. In addition, the results for the TGI with SK-MEL-5 melanoma and in the assay on OVCAR-3 ovarian were 5.87 µM and 1.61 µM, respectively.

In the case of `COc1ccc(C=NCCCN=Cc2ccc(OC)cc2O)c(O)c1`, the TGI in the assay on SNB-75 CNS is 64.8 µM; with MDA-MB-435, above 100 µM; in the assay on K-562 leukemia, above 100 µM; in the assay with BT-549 breast, above 100 µM; in the assay with SR leukemia, above 100 µM; with NCI-H23 lung it was above 100 µM. The figures for the TGI with CCRF-CEM leukemia, in the assay with HCT-116 colon and in the assay on OVCAR-3 ovarian were above 100 µM, above 100 µM and 51.2 µM, respectively.

Regarding `C=CC(=C)CCC(Br)C(C)(C)Cl` (stereo not drawn), the TGI in the assay on SNB-75 CNS, with MDA-MB-435, with K-562 leukemia, in the assay with BT-549 breast, in the assay on NCI-H23 lung and in the assay on CCRF-CEM leukemia was above 100 µM each time. The TGI in the assay on HCT-116 colon, with SK-MEL-5 melanoma and in the assay on OVCAR-3 ovarian was above 100 µM each time.

With `CNC(=O)c1cc(Oc2cccc3nc(NC(=O)Nc4ccc(F)cc4F)ccc23)ccn1`, the GI50 with MDA-MB-435 is 1500 nM; in the assay on BT-549 breast it was above 50 µM; in the assay with SR leukemia it was 410 nM; in the assay with NCI-H23 lung, 2400 nM; in the assay on CCRF-CEM leukemia, above 50 µM; with SK-MEL-5 melanoma, 1020 nM. In addition, the TGI with MDA-MB-435, in the assay with BT-549 breast, in the assay with SR leukemia, in the assay on NCI-H23 lung, with CCRF-CEM leukemia and with SK-MEL-5 melanoma was above 50 µM throughout.

On to `CCOC(=O)c1cc([N+](=O)[O-])cc([N+](=O)[O-])c1Sc1ncnc2nc[nH]c12`, for which the TGI in the assay on SNB-75 CNS was 25.1 µM; in the assay on MDA-MB-435 it was 4.27 µM; in the assay with K-562 leukemia, above 100 µM; in the assay on BT-549 breast, 8.59 µM; in the assay on SR leukemia, above 100 µM; with CCRF-CEM leukemia, 6.84 µM. Also, the TGI came to 7.69 µM with HCT-116 colon, 27.7 µM in the assay with SK-MEL-5 melanoma and 2.45 µM in the assay on OVCAR-3 ovarian.

In the case of `COc1ccc(Oc2nc3c(N)cc(C(F)(F)F)cc3nc2-c2ccccc2)cc1`, the TGI in the assay on SNB-75 CNS is 40.6 µM; with MDA-MB-435, above 100 µM; with K-562 leukemia, above 100 µM; in the assay with BT-549 breast, above 100 µM; in the assay with SR leukemia it was above 100 µM; in the assay on NCI-H23 lung it was above 100 µM. Further, the TGI in the assay with CCRF-CEM leukemia, in the assay on HCT-116 colon and in the assay with SK-MEL-5 melanoma was above 100 µM each time.

As to `Cc1cc2nc(CC(C(F)(F)F)C(F)(F)F)oc2cc1C`, the TGI was 16.3 µM in the assay on SNB-75 CNS; 5.64 µM with MDA-MB-435; 6.65 µM in the assay with BT-549 breast; 8.15 µM in the assay with NCI-H23 lung; above 100 µM with CCRF-CEM leukemia; 2.64 µM with HCT-116 colon. Besides, the TGI in the assay with SK-MEL-5 melanoma worked out at 12.2 µM; with OVCAR-3 ovarian it was 14.2 µM.

As to `CC(=O)N1CCN(CCCCN2c3ccccc3Sc3cc(N=[N+]=[N-])ccc32)CC1`, the TGI in the assay on SNB-75 CNS is 26.2 µM; in the assay with MDA-MB-435, 29 µM; with K-562 leukemia it was 31.3 µM; with BT-549 breast, 31.6 µM; in the assay with SR leukemia it was 26.5 µM; with NCI-H23 lung it was 30.1 µM. For the same compound, the TGI in the assay with CCRF-CEM leukemia came to 33.2 µM; with HCT-116 colon it was 26.7 µM; in the assay on OVCAR-3 ovarian it was 25.3 µM.

As to `COc1cc(/C=C/C2=NN(c3cccc(S(=O)(=O)O)c3)C3(C2)SCC(=O)N3c2nc3ccccc3s2)cc(OC)c1OC` (stereo not drawn), the TGI with SNB-75 CNS was above 100 µM; with MDA-MB-435 it was 50.2 µM; with K-562 leukemia, above 100 µM; with BT-549 breast, above 100 µM; with SR leukemia it was 66.2 µM; in the assay on NCI-H23 lung, above 100 µM. For the same compound, the TGI with CCRF-CEM leukemia is 75.1 µM; in the assay with HCT-116 colon it was above 100 µM; in the assay on SK-MEL-5 melanoma it was above 100 µM.

Consider `O=C(NCCCc1cn[nH]c(=O)n1)c1cccc2nc3ccccc3nc12`, for which the TGI in the assay with MDA-MB-435, in the assay on K-562 leukemia, with BT-549 breast, in the assay with SR leukemia, with NCI-H23 lung and with CCRF-CEM leukemia was above 100 µM in each case. Also, the TGI in the assay on HCT-116 colon, with SK-MEL-5 melanoma and in the assay with OVCAR-3 ovarian was above 100 µM throughout.

`c1ccc(Sc2nc(Sc3ccccc3)nc(Sc3ccccc3)n2)cc1`: the TGI in the assay on MDA-MB-435, in the assay on K-562 leukemia, in the assay with BT-549 breast, in the assay on SR leukemia, with NCI-H23 lung and in the assay with CCRF-CEM leukemia was above 100 µM throughout. Besides, the TGI was above 100 µM with HCT-116 colon, above 100 µM with SK-MEL-5 melanoma and 34.5 µM in the assay on OVCAR-3 ovarian.
